Measurements taken from patent publication US7649012B2, “Compounds, pharmaceutical compositions containing same, and methods of use for same” (FASgen, Inc., priority 2002, dated 2010).
≈ marks a conversion by molar mass, not a printed value. Like-named read-outs stand apart in the source and are kept apart here.

Columns and labels:
[1] = system: MCF-7 human breast cancer cells; assay: [14C]acetate incorporation into total lipids; format: cell-based; conditions: for IC50: Homo sapiens, MCF7, [14C]acetate incorporation into lipids
Description: This assay measures the incorporation of [^14C]acetate into total lipids and is a measure of fatty acid synthesis pathway activity in vitro. It is utilized to measure inhibition of fatty acid synthesis in vitro.
MCF-7 human breast cancer cells cultured as above, are plated at 5×10^4 cells per well in 24-well plates. […] DMSO is added to triplicate wells for a vehicle control. C75 is run at 5 and 10 μg/ml in triplicate as positive controls. After 4 hours of incubation, 0.25 μCi of [^14C]acetate (10 μl volume) is added to each well.
After 2 hours of additional incubation, medium is aspirated from the wells and 800 μl of chloroform:methanol (2:1) and 700 μl of 4 mM MgCl2 is added to each well. Contents of each well are transferred to 1.5 Eppendorf tubes, and spun at full-speed for 2 minutes in a high-speed Eppendorf Microcentrifuge 5415D. After removal of the aqueous (upper) layer, an additional 700 μl of chloroform:methanol (2:1) and 500 μl of 4 mM MgCl2 are added to each tube and then centrifuged for 1 minutes as above. The aqueous layer is removed with a Pasteur pipette and discarded. An additional 400 μl of chloroform:methanol (2:1) and 200 μl of 4 mM MgCl2 are added to each tube, then centrifuged and aqueous layer is discarded. The lower (organic) phase is transferred into a scintillation vial and dried at 40° C. under N2 gas. Once dried, 3 ml of scintillant (APB #NBC5104) is added and vials are counted for ^14C. The Beckman Scintillation counter calculates the average cpm values for triplicates.
The IC50 for the compounds is defined as the concentration of drug leading to a 50% reduction in [^14C]acetate incorporation into lipids compared to controls. […] The average cpm values are computed by the Beckman scintillation counter (Model LS6500) for each compound concentration. Computation of linear regression, best-fit line, r^2, and 95% confidence intervals are calculated using Prism Version 3.0 (Graph Pad Software).

[2] = system: Pseudomonas aeruginosa (ATCC # 27853); assay: Broth microdilution MIC; format: cell-based; conditions: for PSAE/MH(MIC): Mueller Hinton Broth; for PSAE/Tsoy(MIC): Trypticase Soy Broth
Summary of the method: (§1)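 Run in Mueller Hinton Broth and Trypticase Soy Broth, with inoculum at 0.5 McFarland diluted 1:10 and compounds in DMSO at 25 to 0.78 ug/ml (final well concentrations not given) in duplicate. OD600 read after 24 h at 37° C; MIC derived by linear regression.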

[3] = system: Enterococcus faecalis (ATCC # 29212); assay: Broth microdilution MIC; format: cell-based; conditions: for MIC: Enterococcus faecalis, ATCC29212
Summary of the method: as §1

[4] = system: MCF-7 human breast cancer cells; assay: Crystal violet cell growth assay; format: cell-based; conditions: MCF7, MCF-7, 72 hours, read-out: Cr. Violet(IC50)
Description: The crystal violet assay measure cell growth but not cytotoxicity. This assay employs crystal violet staining of fixed cells in 96-well plates with subsequent solubilization and measurement of OD490 on a spectrophotometer. The OD490 corresponds to cell growth per unit time measured. Cells are treated with the compounds of interest or vehicle controls and IC50 for each compound is computed.
To measure the cytotoxicity of specific compounds against cancer cells, 5×10^4 MCF-7 human breast cancer cells, obtained from the American Type Culture Collection are plated per well in 24 well plates in DMEM medium with 10% fetal bovine serum, penicillin, and streptomycin. Following overnight culture at 37° C. and 5% CO2, the compounds to be tested, dissolved in DMSO, are added to the wells in 1 μl volume at the following concentrations: 50, 40, 30, 20, and 10 μg/ml in triplicate. Additional concentrations are tested if required. 1 μl of DMSO is added to triplicate wells are the vehicle control. C75 is run at 10, and 5 μg/ml in triplicate as positive controls.
After 72 hours of incubation, cells are stained with 0.5 ml of Crystal Violet stain (0.5% in 25% methanol) in each well. After 10 minutes, wells are rinsed, air dried, and then solubilized with 0.5 ml 10% sodium dodecylsulfate with shaking for 2 hours.

[5] = Weight loss screen in Balb/C mice; format: in vivo; conditions: for Deaths in weight loss screen: 60 mg/kg; for change in vivo at 60 mg/kg: ip, 60 mg/kg intraperitoneally
Description: Balb/C mice (Jackson Labs) are utilized for the initial weight loss screening. Animals are housed in temperature and 12 hour day/night cycle rooms and fed mouse chow and water ad lib. Three mice are utilized for each compound tested with vehicle controls in triplicate per experiment. For the experiments, mice are housed separately for each compound tested three mice to a cage. […] Mice are observed and weighed daily; average weights and standard errors are computed with Excel (Microsoft). The experiment continues until treated animals reach their pretreatment weights. […]

[6] = Mueller Hinton Broth, read-out: EF/MH(MIC)
[7] = Trypticase Soy Broth, read-out: EF/Tsoy(MIC)

Row | SMILES | IC50 [1] | PSAE/MH(MIC) [2] | PSAE/Tsoy(MIC) [2] | MIC [3, 6] | MIC [3, 7] | IC50 [4] | other results
1 | C=CCC1(C)C(=O)S[C@](C)(CCCCCCCC)C1=O (mixture of isomers) | 14.9 µg/mL | Neg | Neg | 133 µg/mL | 91 µg/mL | > 50 µg/mL | 
2 | CCCCCCC1(C)SC(=O)C=C1OC (stereo not drawn) | 14 ± 2.8 µg/mL (≈ 61.3 µM) | Neg | Neg | 43 µg/mL (≈ 188 µM) | 126 µg/mL (≈ 552 µM) | 26.3 ± 4.3 µg/mL (≈ 115 µM) | Deaths in weight loss screen ([5]; day1, three mice): 3 of 3 dead; change in vivo at 30 mg/kg ([5]; Mus musculus, 24 h, 30 mg/kg, day1, read-out: Weight Loss): 8.7%; change in vivo at 10 mg/kg ([5]; Mus musculus, 72 h, 10 mg/kg (multiple doses), day3): 1%
3 | CCCCCCCC[C@@]1(C)SC(=O)C(C(C)=O)=C1O (racemic) | 12.1 ± 0.1 µg/mL (≈ 42.5 µM) | Neg | Neg | 2.5 µg/mL (≈ 8.79 µM) | 2 µg/mL (≈ 7.03 µM) | 8.4 µg/mL (≈ 29.5 µM) | change in vivo at 60 mg/kg ([5]; Mus musculus, 48 h, day2, read-out: Weight Loss): 8.2%
4 | CCCCCC[C@@]1(C)SC(=O)C=C1OCC(=O)OCC (racemic) | 14.2 ± 0.2 µg/mL (≈ 47.3 µM) | Neg | Neg | 21.3 µg/mL (≈ 70.9 µM) |  | 17 µg/mL (≈ 56.6 µM) | EF/Tsoy(MIC) ([3]; Trypticase Soy Broth): Neg
5 | CCCCCC[C@@]1(C)SC(=O)C=C1OCC(=O)NCCCBr (racemic) | 6.7 µg/mL (≈ 17.1 µM) | Neg | Neg | 99 µg/mL (≈ 252 µM) | 121 µg/mL (≈ 308 µM) | 12.6 ± 3.7 µg/mL (≈ 32.1 µM) | 
6 | C=CCC1=C(OC)C(C)(CCCCCCCC)SC1=O (stereo not drawn) | 23.1 ± 17.4 µg/mL (≈ 77.9 µM) | Neg | Neg |  | 169 µg/mL (≈ 570 µM) | 22.3 µg/mL (≈ 75.2 µM) | EF/MH(MIC) ([3]; Mueller Hinton Broth): Neg; change in vivo at 60 mg/kg ([5]; Mus musculus, 24 h, day1, read-out: Weight Loss): 7.9%
7 | CCCCCCC1(C)SC(=O)C=C1O (stereo not drawn) | 16.5 ± 3.8 µg/mL (≈ 77 µM) | Neg | Neg | 98 µg/mL (≈ 457 µM) | 43 µg/mL (≈ 201 µM) | > 50 µg/mL | Deaths in weight loss screen ([5]; day4, three mice): 60 mg/kg: 3 of 3 dead(day4)
8 | CCCCCC[C@@]1(C)SC(=O)C=C1OCC(=O)NCC(=O)OC (racemic) | 9.8 µg/mL (≈ 28.5 µM) | Neg | Neg |  |  | 32.5 ± 11.7 µg/mL (≈ 94.6 µM) | EF/MH(MIC) ([3]; Mueller Hinton Broth): Neg; EF/Tsoy(MIC) ([3]; Trypticase Soy Broth): Neg
9 | C=C/C(C)=C/C1(C)SC(=O)C=C1O (stereo not drawn) |  |  |  | 220 µg/mL (≈ 1120 µM) |  | > 50 µg/mL | change in vivo at 60 mg/kg ([5]; Mus musculus, 72 h, day3, read-out: Weight Loss): 7.8%
10 | C=CCNC(=O)COC1=CC(=O)S[C@]1(C)CCCCCCCCCC (racemic) |  | Neg | Neg |  |  | 10.4 µg/mL (≈ 28.3 µM) | 14C(IC50) ([1]; [14C]acetate incorporation into lipids): Neg; change in vivo at 15 mg/kg ([5]; Mus musculus, 24 h, read-out: Weight Loss): 0%; change in vivo at 30 mg/kg ([5]; Mus musculus, 48 h, read-out: Weight Loss): 1.8%
11 | CCCCCCCCC1(C)SC(=O)C(C(C)O)=C1O (stereo not drawn) | 17.6 µg/mL (≈ 61.4 µM) | Neg | Neg | 66 µg/mL (≈ 230 µM) | 21 µg/mL (≈ 73.3 µM) | 19.5 µg/mL (≈ 68.1 µM) | 
12 | CCCCCC[C@@]1(C)SC(=O)C=C1OCCCCCl (racemic) | 8.6 µg/mL (≈ 28.2 µM) | Neg | Neg | 117 µg/mL (≈ 384 µM) | 165 µg/mL (≈ 541 µM) | 16.3 µg/mL (≈ 53.5 µM) | 
13 | CCCCCCCCC1(C)SC(=O)C(C)=C1OC (stereo not drawn) | 63.8 µg/mL (≈ 236 µM) | Neg | Neg | 208 µg/mL (≈ 769 µM) | 94 µg/mL (≈ 348 µM) | 15.9 ± 1.9 µg/mL (≈ 58.8 µM) | 
14 | CCCCCCCC[C@@]1(C)SC(=O)C=C1OC(=O)NC(C)C (racemic) | 23.1 ± 13.2 µg/mL (≈ 70.5 µM) | Neg | Neg | 60 µg/mL (≈ 183 µM) | 64 µg/mL (≈ 195 µM) | 22.5 µg/mL (≈ 68.7 µM) | 
